This note sets out measurements from patent US8193241B2, “Discodermolide analogues and methods of their use” (The Trustees Of The University Of Pennsylvania, priority 2007, dated 2012).

One may read the IC50 as the concentration that gives 50% inhibition.

Holding throughout (assay type): cell-based
Experiment [1] has as its system breast (MCF-7) cell line. The experiment in a line: Antiproliferative activity, MCF-7. The note with it: Homo sapiens, MCF7; MCF-7 breast cell line.
The subject of experiment [2] is multi-drug resistant (MDR) cell line (NCI/ADR), over-expresses P-glycoprotein. The experiment in a line: Antiproliferative activity, NCI/ADR. Conditions: Homo sapiens, NCI/ADR-RES.
Experiment [3] has as its system ovarian (SKOV3) cell line. Kind of experiment: Antiproliferative activity, SKOV3. Conditions: Homo sapiens, SK-OV-3.
The subject of experiment [4] is wide range of cell lines, including breast (MCF-7), ovarian (SKOV3) and MDR (NCI/ADR). The experiment in a line: Antiproliferative assays over a series of cell lines (statements in words). The note with it: wide range of cell lines incl. MCF-7, SKOV3, NCI/ADR.

On to `CC/C=C\C(C)[C@H](OC(N)=O)[C@@H](C)[C@H](O)[C@@H](C)C/C(C)=C\[C@H](C)[C@@H](O)C(C)/C=C\c1ccc2c(c1)N(COC)C(=O)CO2` (single isomer, unassigned; (+)) [(+)-12], for which the IC50 in experiment [1] came to 3000 nM; in experiment [2], 4000 nM; in experiment [3], 2900 nM. For the same compound, the “Antiproliferative activity in words” value in experiment [4] is on record as “micromolar activity”.
In the same order, the values of `CC/C=C\C(C)[C@H](OC(N)=O)[C@@H](C)[C@H](O)[C@@H](C)C/C(C)=C\[C@H](C)[C@@H](O)C(C)/C=C\c1ccc2c(c1)N(C)C(=O)CO2` (single isomer, unassigned; (+)) [(+)-11] are 1600 nM, 3200 nM, 2400 nM and “micromolar activity”.
For `CC/C=C\C(C)[C@H](OC(N)=O)[C@@H](C)[C@H](O)[C@@H](C)C/C(C)=C\[C@H](C)[C@@H](O)C(C)/C=C\c1ccc2oc(=O)ccc2c1` (single isomer, unassigned; (+)) [(+)-9] the same measures were 1600 nM, 3300 nM, 1800 nM and “micromolar activity”.
In the same order, the values of `C=C/C=C\C(C)[C@H](OC(N)=O)[C@@H](C)[C@H](O)[C@@H](C)C/C(C)=C\[C@H](C)[C@@H](O)C(C)/C=C\c1ccc2ccc(=O)oc2c1` (single isomer, unassigned; (+)) [(+)-6] are 12 nM, 190 nM, 44 nM and “nanomolar activity similar to (+)-discodermolide 1”.
For the compound `CC/C=C\C(C)[C@H](OC(N)=O)[C@@H](C)[C@H](O)[C@@H](C)C/C(C)=C\[C@H](C)[C@@H](O)C(C)/C=C\c1ccc2ccc(=O)oc2c1` (single isomer, unassigned; (+)) [(+)-8], the IC50 in experiment [1] is 15 nM; in experiment [2], 230 nM; in experiment [3], 35 nM. In addition, the “Antiproliferative activity in words” value in experiment [4] was “nanomolar activity equivalent to (+)-1 and (+)-6”.
For the compound `CC/C=C\C(C)[C@H](OC(N)=O)[C@@H](C)[C@H](O)[C@@H](C)C/C(C)=C\[C@H](C)[C@@H](O)C(C)/C=C\c1ccc2c(c1)NC(=O)CO2` (single isomer, unassigned; (-)) [(−)-10], the IC50 turned out to be 430 nM in experiment [1], 840 nM in experiment [2] and 790 nM in experiment [3]. Also, in experiment [4], the “Antiproliferative activity in words” value is given as “micromolar activity”.
Consider `C=C/C=C\[C@H](C)[C@H](OC(N)=O)[C@@H](C)[C@H](O)[C@@H](C)C/C(C)=C\[C@H](C)[C@@H](O)[C@@H](C)/C=C\[C@@H](O)CC1OC(=O)[C@H](C)[C@@H](O)[C@H]1C` (single isomer, unassigned; (+)) [(+)-Discodermolide 1, (+)-discodermolide, reference compound], for which the IC50 in experiment [1] is 26 nM; in experiment [2], 260 nM; in experiment [3], 25 nM.
